Reference: the supplement of paper PMC10307832

Legend:
Assay in all cases: relative viability (nuclei count vs DMSO), 5 days (fraction); higher = more cells survive
[1] = compound: CC1=CC(=NN1)NC2=CC(=NC(=N2)/C=C/C3=CC=CC=C3)N4CCN(CC4)C + Cc1nc(Nc2ncc(C(=O)Nc3c(C)cccc3Cl)s2)cc(N2CCN(CCO)CC2)n1 [Dasatinib] (partner 0.075 µM)
Procedure, shortened: (§1)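 Five library-drug doses in √10 steps were combined with a fixed anchor-drug dose, or a single drug was given alone, by pin tool to lung cancer cell lines in 1536-well plates the day after seeding. Nuclei were stained and counted after 5 days. Relative viability is the nuclei count in treated wells over that in vehicle wells, taken as the median of duplicate plates.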

[2] = compound: COC1=CC(c2cc3ccccc3[nH]2)=N/C1=C\c1[nH]c(C)cc1C [Obatoclax] + COc1cc2c(Oc3ccc(NC(=O)C4(C(=O)Nc5ccc(F)cc5)CC4)cc3F)ccnc2cc1OCCCN1CCOCC1 [Foretinib] (partner 0.25 µM)
Procedure, shortened: as §1

[3] = compound: COC1=CC(c2cc3ccccc3[nH]2)=N/C1=C\c1[nH]c(C)cc1C [Obatoclax] + O=C(CCCCCCC(=O)Nc1ccccc1)NO [Vorinostat] (partner 1 µM)
Procedure, shortened: as §1

[4] = compound: CC1=CC(=NN1)NC2=CC(=NC(=N2)/C=C/C3=CC=CC=C3)N4CCN(CC4)C + CCNC(=O)c1noc(-c2cc(C(C)C)c(O)cc2O)c1-c1ccc(CN2CCOCC2)cc1 [Luminespib] (partner 0.01 µM)
Procedure, shortened: as §1

Q: Which relative viability ([1]; first compound 0.08 µM) does the source give for NCI-H358 here?
A: 0.171

Q: And the relative viability ([1]; first compound 0.253 µM)?
A: 0.23

Q: What about the relative viability ([1]; first compound 0.8 µM) of the same cell line?
A: 0.173

Q: What about the relative viability ([1]; first compound 2.53 µM) of the same cell line?
A: 0.08

Q: What about the relative viability ([1]; first compound 8 µM) of the same cell line?
A: 0.0626

Q: And the relative viability ([2]; first compound 0.01 µM)?
A: 0.664

Q: What about the relative viability ([2]; first compound 0.03162 µM) of the same cell line?
A: 0.847

Q: And the relative viability ([2]; first compound 0.1 µM)?
A: 0.668

Q: And the relative viability ([2]; first compound 0.3162 µM)?
A: 0.415

Q: And the relative viability ([2]; first compound 1 µM)?
A: 0.311

Q: What about the relative viability ([3]; first compound 0.01 µM) of the same cell line?
A: 0.661

Q: And the relative viability ([3]; first compound 0.03162 µM)?
A: 0.73

Q: And the relative viability ([3]; first compound 0.1 µM)?
A: 0.595

Q: And the relative viability ([3]; first compound 0.3162 µM)?
A: 0.183

Q: And the relative viability ([3]; first compound 1 µM)?
A: 0.141

Q: And the relative viability ([4]; first compound 0.08 µM)?
A: 0.35

Q: And the relative viability ([4]; first compound 0.253 µM)?
A: 0.303

Q: What about the relative viability ([4]; first compound 0.8 µM) of the same cell line?
A: 0.261

Q: And the relative viability ([4]; first compound 2.53 µM)?
A: 0.206

Q: And the relative viability ([4]; first compound 8 µM)?
A: 0.0878

Q: Which relative viability ([1]; first compound 0.08 µM) does the source give for HCC-366 here?
A: 0.708

Q: What about the relative viability ([1]; first compound 0.253 µM) of the same cell line?
A: 0.645

Q: And the relative viability ([1]; first compound 0.8 µM)?
A: 0.544

Q: And the relative viability ([1]; first compound 2.53 µM)?
A: 0.0369

Q: What about the relative viability ([1]; first compound 8 µM) of the same cell line?
A: 0.0193

Q: What about the relative viability ([2]; first compound 0.01 µM) of the same cell line?
A: 0.932

Q: And the relative viability ([2]; first compound 0.03162 µM)?
A: 0.922

Q: What about the relative viability ([2]; first compound 0.1 µM) of the same cell line?
A: 0.916

Q: And the relative viability ([2]; first compound 0.3162 µM)?
A: 0.549

Q: And the relative viability ([2]; first compound 1 µM)?
A: 0.919

Q: And the relative viability ([3]; first compound 0.01 µM)?
A: 0.352

Q: What about the relative viability ([3]; first compound 0.03162 µM) of the same cell line?
A: 0.398

Q: And the relative viability ([3]; first compound 0.1 µM)?
A: 0.312

Q: What about the relative viability ([3]; first compound 0.3162 µM) of the same cell line?
A: 0.353

Q: What about the relative viability ([3]; first compound 1 µM) of the same cell line?
A: 0.191

Q: What does the source list for NCI-H2405?
A: relative viability ([1]; first compound 0.08 µM): 0.227; relative viability ([1]; first compound 0.253 µM): 0.216; relative viability ([1]; first compound 0.8 µM): 0.206; relative viability ([1]; first compound 2.53 µM): 0.165; relative viability ([1]; first compound 8 µM): 0.109; relative viability ([2]; first compound 0.01 µM): 1.09; relative viability ([2]; first compound 0.03162 µM): 1.06; relative viability ([2]; first compound 0.3162 µM): 1.07; relative viability ([2]; first compound 1 µM): 1.13; relative viability ([3]; first compound 0.01 µM): 1.05; relative viability ([3]; first compound 0.03162 µM): 1; relative viability ([3]; first compound 0.3162 µM): 0.984; relative viability ([3]; first compound 1 µM): 0.981; relative viability ([4]; first compound 0.08 µM): 0.845; relative viability ([4]; first compound 0.253 µM): 0.827; relative viability ([4]; first compound 0.8 µM): 0.655; relative viability ([4]; first compound 2.53 µM): 0.526; relative viability ([4]; first compound 8 µM): 0.186

Q: How did the relative viability ([2]; first compound 0.01 µM) turn out when Calu-6 was run?
A: 0.901

Q: What about the relative viability ([2]; first compound 0.03162 µM) of the same cell line?
A: 0.739

Q: And the relative viability ([2]; first compound 0.1 µM)?
A: 0.927

Q: What about the relative viability ([2]; first compound 0.3162 µM) of the same cell line?
A: 0.919

Q: And the relative viability ([2]; first compound 1 µM)?
A: 0.321

Q: Which relative viability ([1]; first compound 0.08 µM) does the source give for 201T here?
A: 0.586

Q: And the relative viability ([1]; first compound 0.253 µM)?
A: 0.546

Q: What about the relative viability ([1]; first compound 0.8 µM) of the same cell line?
A: 0.541

Q: And the relative viability ([1]; first compound 2.53 µM)?
A: 0.435

Q: What about the relative viability ([1]; first compound 8 µM) of the same cell line?
A: 0.208

Q: And the relative viability ([2]; first compound 0.01 µM)?
A: 1.09

Q: And the relative viability ([2]; first compound 0.03162 µM)?
A: 1.12

Q: What about the relative viability ([2]; first compound 0.1 µM) of the same cell line?
A: 1.1

Q: And the relative viability ([2]; first compound 0.3162 µM)?
A: 1.09

Q: And the relative viability ([2]; first compound 1 µM)?
A: 0.768

Q: And the relative viability ([3]; first compound 0.01 µM)?
A: 0.954

Q: And the relative viability ([3]; first compound 0.03162 µM)?
A: 0.834

Q: And the relative viability ([3]; first compound 0.1 µM)?
A: 0.968

Q: What about the relative viability ([3]; first compound 0.3162 µM) of the same cell line?
A: 0.959

Q: What about the relative viability ([3]; first compound 1 µM) of the same cell line?
A: 1.06

Q: And the relative viability ([4]; first compound 0.08 µM)?
A: 1.01

Q: What about the relative viability ([4]; first compound 0.253 µM) of the same cell line?
A: 1.04

Q: What about the relative viability ([4]; first compound 0.8 µM) of the same cell line?
A: 1.01

Q: What about the relative viability ([4]; first compound 2.53 µM) of the same cell line?
A: 0.947

Q: And the relative viability ([4]; first compound 8 µM)?
A: 0.266

Q: For CAL-12T, which relative viability ([1]; first compound 0.08 µM) is on record?
A: 0.52

Q: What about the relative viability ([1]; first compound 0.253 µM) of the same cell line?
A: 0.38

Q: What about the relative viability ([1]; first compound 0.8 µM) of the same cell line?
A: 0.342

Q: What about the relative viability ([1]; first compound 2.53 µM) of the same cell line?
A: 0.0924

Q: What about the relative viability ([1]; first compound 8 µM) of the same cell line?
A: 0.0804

Q: And the relative viability ([2]; first compound 0.01 µM)?
A: 1.11

Q: And the relative viability ([2]; first compound 0.03162 µM)?
A: 1.16

Q: What about the relative viability ([2]; first compound 0.1 µM) of the same cell line?
A: 1.09

Q: What about the relative viability ([2]; first compound 0.3162 µM) of the same cell line?
A: 0.343

Q: What about the relative viability ([2]; first compound 1 µM) of the same cell line?
A: 0.134

Q: And the relative viability ([3]; first compound 0.01 µM)?
A: 0.847

Q: And the relative viability ([3]; first compound 0.03162 µM)?
A: 0.883

Q: And the relative viability ([3]; first compound 0.1 µM)?
A: 1.05

Q: What about the relative viability ([3]; first compound 0.3162 µM) of the same cell line?
A: 0.521

Q: What about the relative viability ([3]; first compound 1 µM) of the same cell line?
A: 0.142

Q: And the relative viability ([4]; first compound 0.08 µM)?
A: 0.429

Q: What about the relative viability ([4]; first compound 0.253 µM) of the same cell line?
A: 0.512

Q: And the relative viability ([4]; first compound 0.8 µM)?
A: 0.356

Q: What about the relative viability ([4]; first compound 2.53 µM) of the same cell line?
A: 0.123

Q: What about the relative viability ([4]; first compound 8 µM) of the same cell line?
A: 0.074

Q: HCC-44 was tested. Which relative viability ([3]; first compound 0.01 µM) did it give?
A: 1.04

Q: What about the relative viability ([3]; first compound 0.03162 µM) of the same cell line?
A: 1.06

Q: What about the relative viability ([3]; first compound 0.1 µM) of the same cell line?
A: 1.05

Q: And the relative viability ([3]; first compound 0.3162 µM)?
A: 1.1

Q: And the relative viability ([3]; first compound 1 µM)?
A: 1.03

Q: What about the relative viability ([4]; first compound 0.08 µM) of the same cell line?
A: 1.04

Q: And the relative viability ([4]; first compound 0.253 µM)?
A: 1.53

Q: What about the relative viability ([4]; first compound 0.8 µM) of the same cell line?
A: 0.993

Q: What about the relative viability ([4]; first compound 2.53 µM) of the same cell line?
A: 0.842

Q: And the relative viability ([4]; first compound 8 µM)?
A: 0.164

Q: NCI-H1944 was tested. Which relative viability ([1]; first compound 0.08 µM) did it give?
A: 0.23

Q: And the relative viability ([1]; first compound 0.253 µM)?
A: 0.209

Q: And the relative viability ([1]; first compound 0.8 µM)?
A: 0.197

Q: What about the relative viability ([1]; first compound 2.53 µM) of the same cell line?
A: 0.147

Q: What about the relative viability ([1]; first compound 8 µM) of the same cell line?
A: 0.107

Q: And the relative viability ([2]; first compound 0.01 µM)?
A: 0.877

Q: What about the relative viability ([2]; first compound 0.03162 µM) of the same cell line?
A: 0.772

Q: What about the relative viability ([2]; first compound 0.1 µM) of the same cell line?
A: 0.894

Q: And the relative viability ([2]; first compound 0.3162 µM)?
A: 0.942

Q: What about the relative viability ([2]; first compound 1 µM) of the same cell line?
A: 0.933

Q: What about the relative viability ([3]; first compound 0.01 µM) of the same cell line?
A: 0.519

Q: What about the relative viability ([3]; first compound 0.03162 µM) of the same cell line?
A: 0.484

Q: And the relative viability ([3]; first compound 0.1 µM)?
A: 0.57

Q: What about the relative viability ([3]; first compound 0.3162 µM) of the same cell line?
A: 0.561

Q: What about the relative viability ([3]; first compound 1 µM) of the same cell line?
A: 0.527

Q: What about the relative viability ([4]; first compound 0.08 µM) of the same cell line?
A: 0.63

Q: What about the relative viability ([4]; first compound 0.253 µM) of the same cell line?
A: 1.06

Q: And the relative viability ([4]; first compound 0.8 µM)?
A: 0.815

Q: What about the relative viability ([4]; first compound 2.53 µM) of the same cell line?
A: 0.553

Q: And the relative viability ([4]; first compound 8 µM)?
A: 0.164

Q: What does the source list for SK-MES-1?
A: relative viability ([1]; first compound 0.08 µM): 0.479; relative viability ([1]; first compound 0.253 µM): 0.322; relative viability ([1]; first compound 0.8 µM): 0.493; relative viability ([1]; first compound 2.53 µM): 0.139; relative viability ([1]; first compound 8 µM): 0.0976; relative viability ([2]; first compound 0.01 µM): 0.935; relative viability ([2]; first compound 0.03162 µM): 1.03; relative viability ([2]; first compound 0.1 µM): 0.831; relative viability ([2]; first compound 0.3162 µM): 0.833; relative viability ([2]; first compound 1 µM): 0.867; relative viability ([3]; first compound 0.01 µM): 1.06; relative viability ([3]; first compound 0.03162 µM): 1.11; relative viability ([3]; first compound 0.1 µM): 0.905; relative viability ([3]; first compound 0.3162 µM): 0.907; relative viability ([3]; first compound 1 µM): 0.301; relative viability ([4]; first compound 0.08 µM): 0.61; relative viability ([4]; first compound 0.253 µM): 0.888; relative viability ([4]; first compound 0.8 µM): 0.391; relative viability ([4]; first compound 2.53 µM): 0.144; relative viability ([4]; first compound 8 µM): 0.131
